In patent US20240425490A1, “SULFAMIDE RIBONUCLEOTIDE REDUCTASE (RNR) INHIBITORS AND USES THEREOF” (Boundless Bio, Inc., priority 2021, published 2024) one finds IC50 data, which are given here for 20 compounds.

In this experiment the target is T1, RNR (RNR1:RNR2 1:1) (Homo sapiens, UniProt P23921).
T1 sequence (P23921 1-792): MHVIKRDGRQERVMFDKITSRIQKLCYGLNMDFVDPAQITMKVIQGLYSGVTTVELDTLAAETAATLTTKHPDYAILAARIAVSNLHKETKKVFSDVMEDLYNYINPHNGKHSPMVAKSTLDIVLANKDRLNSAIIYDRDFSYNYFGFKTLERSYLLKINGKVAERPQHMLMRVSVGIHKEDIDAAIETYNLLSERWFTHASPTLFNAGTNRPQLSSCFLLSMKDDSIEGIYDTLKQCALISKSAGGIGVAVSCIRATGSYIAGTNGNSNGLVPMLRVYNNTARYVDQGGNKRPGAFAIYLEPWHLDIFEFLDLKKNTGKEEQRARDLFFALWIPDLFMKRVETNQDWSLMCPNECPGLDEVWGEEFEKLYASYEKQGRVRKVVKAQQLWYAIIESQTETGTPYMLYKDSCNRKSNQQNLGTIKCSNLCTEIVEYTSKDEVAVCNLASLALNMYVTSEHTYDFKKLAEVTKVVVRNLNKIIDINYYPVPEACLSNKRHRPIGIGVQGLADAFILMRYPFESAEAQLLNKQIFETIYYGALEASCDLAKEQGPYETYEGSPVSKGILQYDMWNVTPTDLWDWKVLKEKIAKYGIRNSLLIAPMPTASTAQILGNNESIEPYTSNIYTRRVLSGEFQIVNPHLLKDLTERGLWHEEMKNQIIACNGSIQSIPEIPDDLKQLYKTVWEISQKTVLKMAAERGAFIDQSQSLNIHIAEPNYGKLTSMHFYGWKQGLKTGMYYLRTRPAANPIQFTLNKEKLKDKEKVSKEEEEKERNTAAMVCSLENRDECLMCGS
Kind of experiment: RNR enzyme activity, rapid-fire mass spectrometry (RFMS) assay. The class given is biochemical. The following applies: RNR 50 nM, CDP 5 μM, ATP 1 mM, 37° C., 45 min, compounds screened up to 50 μM, read-out: RF/MS IC50. The protocol:
A rapid-fire mass spectrometry (RFMS) assay was used to assess RNR enzyme activity using a 384 well plate and a robotic platform.
The plate layout included two validated reference compounds (Triapine (3-AP) and Hydroxyurea (HU)): • A dose response in duplicate; top concentration: 5 μM (3-AP) and 250 μM (HU), semi-log dilutions. • Spike wells in triplicate randomly spotted at four concentrations: • 250 μM, 100 μM, 30 μM and 2 μM for HU • 5 μM, 2 μM, 0.6 μM and 0.04 μM for 3-AP
First, the multidrop pipes were saturated for 30 minutes with enzymatic solution. Then 30 μL of Stop solution was distributed in column 24. Next, 15 μL of enzyme was distributed in column 1 to 24. Next, a pre-incubation step of 15 minutes at room temperature occurred, followed by distribution of 15 μL of substrate solution (column 1 to 24). Next, the plate was incubated for 45 minutes at 37° C. 30 μL of Stop solution was distributed to columns 1 to 23.
The final parameters for the enzyme reactions were: • Incubation: 37° C., 45 min • [CDP]: 5 μM; [ATP]: 1 mM; [NADPH]: No • [RNR] final: 50 nM with 1:1 (RNR1:RNR2) ratio • Final volume: 30 μL • Stop solution: 6% HCOOH containing 2 μM of 15
As for “4-(3-azabicyclo[3.1.0]hexan-3-yl)-N-((1S,2R)-2-(6-fluoro-2,3-dimethylphenyl)-1-(5-oxo-4,5-dihydro-1,3,4-oxadiazol-2-yl)propyl)piperidine-1-sulfonamide [Example 105]”, the IC50 lay within 1 to 10 µM.

On to `Cc1ccc(F)c([C@@H](C)[C@H](NS(=O)(=O)N2CCCC(C(C)O)C2)c2n[nH]c(=O)o2)c1C` (mixture of isomers) [Example 27, rac-N-((1R,2S)-2-(6-fluoro-2,3-dimethylphenyl)-1-(5-oxo-4,5-dihydro-1,3,4-oxadiazol-2-yl)propyl)-3-(1-hydroxyethyl)piperidine-1-sulfonamide], for which the IC50 was in the range of 0.1 to 1 µM.

With `Cc1ccc(F)c([C@H](C)[C@H](NS(=O)(=O)N2CCCC(C(C)O)C2)c2n[nH]c(=O)o2)c1C` (mixture of isomers) [Example 28, rac-N-((1R,2R)-2-(6-fluoro-2,3-dimethylphenyl)-1-(5-oxo-4,5-dihydro-1,3,4-oxadiazol-2-yl)propyl)-3-(1-hydroxyethyl)piperidine-1-sulfonamide], the IC50 lay in the range of 10 to 100 µM.

With `Cc1ccc(F)c([C@@H](C)[C@H](NS(=O)(=O)N2CCC(F)(F)CC2)c2n[nH]c(=O)o2)c1C` [Example 1, 4,4-difluoro-N-((1S,2R)-2-(6-fluoro-2,3-dimethylphenyl)-1-(5-oxo-4,5-dihydro-1,3,4-oxadiazol-2-yl)propyl)piperidine-1-sulfonamide], the IC50 was 0.1 to 1 µM.

In the case of `Cc1ccc(F)c([C@H](C)[C@H](NS(=O)(=O)N2CCC(F)(F)CC2)c2n[nH]c(=O)o2)c1C` [Example 2, 4,4-difluoro-N-[(1S,2S)-2-(6-fluoro-2,3-dimethylphenyl)-1-(5-oxo-4H-1,3,4-oxadiazol-2-yl)propyl]piperidine-1-sulfonamide], the IC50 is 10 to 100 µM.

With `Cc1ccc(F)c(C(C)[C@H](NS(=O)(=O)N2CCCCC2C#N)c2n[nH]c(=O)o2)c1C` (stereo partly drawn) [Example 3, 2-cyano-N-[(1S)-2-(6-fluoro-2,3-dimethylphenyl)-1-(5-oxo-4H-1,3,4-oxadiazol-2-yl)propyl]piperidine-1-sulfonamide], the IC50 was 1 to 10 µM.

As for `Cc1ccc(F)c([C@@H](C)[C@H](NS(=O)(=O)N2C[C@H]3CCC[C@H]3C2)c2n[nH]c(=O)o2)c1C` [Example 4, (3aR,6aS)-N-((1S,2R)-2-(6-Fluoro-2,3-dimethylphenyl)-1-(5-oxo-4,5-dihydro-1,3,4-oxadiazol-2-yl)propyl)hexahydrocyclopenta[c]pyrrole-2(1H)-sulfonamide], the IC50 was in the range of 0.1 to 1 µM.

As for `Cc1ccc(F)c([C@@H](C)[C@H](NS(=O)(=O)N2CCC(Cl)CC2)c2n[nH]c(=O)o2)c1C` [Example 5, 4-chloro-N-((1S,2R)-2-(6-fluoro-2,3-dimethylphenyl)-1-(5-oxo-4,5-dihydro-1,3,4-oxadiazol-2-yl)propyl)piperidine-1-sulfonamide], the IC50 fell in the range of 0.1 to 1 µM.

On to `Cc1ccc(F)c([C@H](C)[C@H](NS(=O)(=O)N2CCC(Cl)CC2)c2n[nH]c(=O)o2)c1C` [Example 6, 4-chloro-N-((1S,2S)-2-(6-fluoro-2,3-dimethylphenyl)-1-(5-oxo-4,5-dihydro-1,3,4-oxadiazol-2-yl)propyl)piperidine-1-sulfonamide], for which the IC50 fell in the range of 1 to 10 µM.

Regarding `Cc1ccc(F)c([C@@H](C)[C@H](NS(=O)(=O)N2CC3CCCC(C3)C2)c2n[nH]c(=O)o2)c1C` [Example 7, N-((1S,2R)-2-(6-fluoro-2,3-dimethylphenyl)-1-(5-oxo-4,5-dihydro-1,3,4-oxadiazol-2-yl)propyl)-3-azabicyclo[3.3.1]nonane-3-sulfonamide], the IC50 fell in the range of 10 to 100 µM.

Turning to `Cc1ccc(F)c([C@@H](C)[C@H](NS(=O)(=O)N2CCC(C)CC2C)c2n[nH]c(=O)o2)c1C` (stereo partly drawn) [Example 8, N-((1S,2R)-2-(6-fluoro-2,3-dimethylphenyl)-1-(5-oxo-4,5-dihydro-1,3,4-oxadiazol-2-yl)propyl)-2,4-dimethylpiperidine-1-sulfonamide], the IC50 is 1 to 10 µM.

As for `Cc1ccc(F)c([C@@H](C)[C@H](NS(=O)(=O)N2CCC(C3CCCCC3)CC2)c2n[nH]c(=O)o2)c1C` [Example 9, 4-cyclohexyl-N-((1S,2R)-2-(6-fluoro-2,3-dimethylphenyl)-1-(5-oxo-4,5-dihydro-1,3,4-oxadiazol-2-yl)propyl)piperidine-1-sulfonamide], the IC50 is 10 to 100 µM.

On to `Cc1ccc(F)c([C@H](C)[C@H](NS(=O)(=O)N2CCC(C3CCCCC3)CC2)c2n[nH]c(=O)o2)c1C` [Example 10, 4-cyclohexyl-N-((1S,2S)-2-(6-fluoro-2,3-dimethylphenyl)-1-(5-oxo-4,5-dihydro-1,3,4-oxadiazol-2-yl)propyl)piperidine-1-sulfonamide], for which the IC50 lay in the range of 10 to 100 µM.

For the compound `Cc1ccc(F)c([C@@H](C)[C@H](NS(=O)(=O)N2CCCC[C@@H]2C(N)=O)c2n[nH]c(=O)o2)c1C` [Example 12, (R)-1-(N-((1S,2R)-2-(6-fluoro-2,3-dimethylphenyl)-1-(5-oxo-4,5-dihydro-1,3,4-oxadiazol-2-yl)propyl)sulfamoyl)piperidine-2-carboxamide], the IC50 was in the range of 1 to 10 µM.

As to `Cc1ccc(F)c([C@@H](C)[C@H](NS(=O)(=O)N2CCCCC2C(=O)O)c2n[nH]c(=O)o2)c1C` (stereo partly drawn) [Example 13, 1-(N-((1S,2R)-2-(6-fluoro-2,3-dimethylphenyl)-1-(5-oxo-4,5-dihydro-1,3,4-oxadiazol-2-yl)propyl)sulfamoyl)piperidine-2-carboxylic acid], the IC50 fell in the range of 10 to 100 µM.

With `Cc1ccc(F)c([C@H](C)[C@H](NS(=O)(=O)N2CCCCC2C(=O)O)c2n[nH]c(=O)o2)c1C` (stereo partly drawn) [Example 14, 1-(N-((1S,2S)-2-(6-fluoro-2,3-dimethylphenyl)-1-(5-oxo-4,5-dihydro-1,3,4-oxadiazol-2-yl)propyl)sulfamoyl)piperidine-2-carboxylic acid], the IC50 fell in the range of 10 to 100 µM.

In the case of `Cc1ccc(F)c([C@@H](C)[C@H](NS(=O)(=O)N2CCCCC2CC(N)=O)c2n[nH]c(=O)o2)c1C` (stereo partly drawn) [Example 15, 2-(1-(N-((1S,2R)-2-(6-fluoro-2,3-dimethylphenyl)-1-(5-oxo-4,5-dihydro-1,3,4-oxadiazol-2-yl)propyl)sulfamoyl)piperidin-2-yl)acetamide], the IC50 was in the range of 0.1 to 1 µM.

Regarding `Cc1ccc(F)c([C@H](C)[C@H](NS(=O)(=O)N2CCCCC2CC(N)=O)c2n[nH]c(=O)o2)c1C` (stereo partly drawn) [Example 16, 2-(1-(N-((1S,2S)-2-(6-fluoro-2,3-dimethylphenyl)-1-(5-oxo-4,5-dihydro-1,3,4-oxadiazol-2-yl)propyl)sulfamoyl)piperidin-2-yl)acetamide], the IC50 is 1 to 10 µM.

In the case of `CC(=O)[C@@H]1CCCCN1S(=O)(=O)N[C@H](c1n[nH]c(=O)o1)[C@H](C)c1c(F)ccc(C)c1C` [Example 17, (S)-2-acetyl-N-((1S,2R)-2-(6-fluoro-2,3-dimethylphenyl)-1-(5-oxo-4,5-dihydro-1,3,4-oxadiazol-2-yl)propyl)piperidine-1-sulfonamide], the IC50 was in the range of 10 to 100 µM.

On to `CC(=O)[C@@H]1CCCCN1S(=O)(=O)N[C@H](c1n[nH]c(=O)o1)[C@@H](C)c1c(F)ccc(C)c1C` [Example 18, (S)-2-acetyl-N-((1S,2S)-2-(6-fluoro-2,3-dimethylphenyl)-1-(5-oxo-4,5-dihydro-1,3,4-oxadiazol-2-yl)propyl)piperidine-1-sulfonamide], for which the IC50 was in the range of 1 to 10 µM.
